Test results published in publication PMC3164379, “Three New Compounds from Aspergillus terreus PT06-2 Grown in a High Salt Medium” (Marine Drugs, 2011).
Converted amounts (≈) assume the structure as drawn. Read-outs that look alike come from different tables or passages of the source.

What was measured:
BEL-7402 cell line = test: in vitro; conditions: human
Protocol: (§1) Cytotoxicity against HL-60 and BEL-7402 cancer cell lines and confluent MDCK cells was assayed by the MTT method [28]. Cell lines were grown in RPMI-1640 supplemented with 10% FBS under a humidified atmosphere of 5% CO2 and 95% air at 37 °C. […] Then, 2 μL of the test solutions (in MeOH) were added to each well and further incubated for 72 h. The MTT solution (20 μL, 5 mg/mL in IPMI-1640 medium) was then added to each well and incubated for 4 h. Old medium containing MTT (150 μL) was then gently replaced by DMSO and pipetted to dissolve any formazan crystals formed. Absorbance was then determined on a SPECTRA MAX PLUS plate reader at 540 nm. The CC50 was calculated as the compound concentration necessary to reduce cell viability by 50%.

HL-60 cell line = test: in vitro; conditions: human
Protocol: as §1

[1] = test system: influenza virus (A/Puerto Rico/8/34 (H1N1), PR/8); test: Antiviral activity against H1N1, CPE inhibition assay; format: cell-based; conditions: read-out: IC50 anti-H1N1 activity
Enterobacter aerogenes = test: Antimicrobial activity, agar dilution method; conditions: for MIC: Klebsiella aerogenes, 24 h, read-out: MIC Enterobacter aerogenes; for MIC Enterobacter aerogenes: agar dilution, paper disks, 24 h incubation, 37 °C
Protocol: (§2) Antimicrobial activity against E. aerogenes, P. aeruginosa, S. aureus and C. albicans was evaluated using an agar dilution method [29]. The tested strains were cultivated in LB agar plates for bacteria and in YPD agar plates for C. albicans, at 37 °C. Compounds and positive controls were dissolved in 5% DMSO-H2O at different concentrations from 1000 to 62.5 μg/mL and then from 50 to 0.78 μg/mL, using continuous 2-fold dilution. The test solutions (5 μL) were absorbed onto paper disks (5 mm diameter) and placed on the assay plates. After 24 h incubation, zones of inhibition (mm in diameter) were recorded. The minimum inhibitory concentrations were defined as the lowest concentration at which an inhibition zone could be observed.

Pseudomonas aeruginosa = test: Antimicrobial activity, agar dilution method; conditions: for MIC: Pseudomonas aeruginosa, 24 h; for MIC Pseudomonas aeruginosa: agar dilution, paper disks, 24 h incubation, 37 °C
Protocol: as §2

Candida albicans = test: Antimicrobial activity, agar dilution method; conditions: for MIC: Candida albicans, 24 h, read-out: MIC Candida albicans
Protocol: as §2

Staphylococcus aureus = test: Antimicrobial activity, agar dilution method; conditions: for MIC: Staphylococcus aureus, 24 h, read-out: MIC Staphylococcus aureus; for MIC Staphylococcus aureus: agar dilution, paper disks, 24 h incubation, 37 °C
Protocol: as §2

[2] = Cytotoxicity against confluent MDCK cells by MTT method; format: cell-based; conditions: dog, read-out: CC50 (50% cytotoxicity concentration)
Protocol: as §1

[3] = read-out: MIC Pseudomonas aeruginosa, agar dilution, paper disks, 24 h incubation, 37 °C

Compound	MIC (Enterobacter aerogenes)	MIC (Pseudomonas aeruginosa; [3])	MIC (Candida albicans)	MIC (Staphylococcus aureus)	MIC Pseudomonas aeruginosa (Pseudomonas aeruginosa)	further results
COc1cc([C@@H]2c3cc4c(cc3[C@@H](O[C@@H]3O[C@@H]5CO[C@@H](C)O[C@H]5[C@H](O)[C@H]3O)[C@H]3COC(=O)[C@H]23)OCO4)cc(OC)c1O [Vp-16, Etoposide, reference compound]						IC50 at 72 h (BEL-7402 cell line): 0.83 µM; IC50 at 72 h (HL-60 cell line): 0.042 µM
NC(=O)c1ncn([C@@H]2O[C@H](CO)[C@@H](O)[C@H]2O)n1 [Ribavirin, reference compound]						IC50 ([1]; CPE inhibition in MDCK cells, 48 h post-infection): 101 µM
COC(=O)c1cccc(O)c1-n1c(-c2cccnc2)nc2ccccc2c1=O [Compound 2, methyl 3-hydroxy-2-(4-oxo-2-(pyridin-3-yl)quinazolin-3(4H)-yl)benzoate]	33.5 µM (≈ 12.5 µg/mL)	> 100 µM	> 100 µM	> 100 µM		
CC(O)C(=O)O.O=C(O)c1cn(C2CC2)c2cc(N3CCNCC3)c(F)cc2c1=O [Ciprofloxacinlactate, reference compound]					30 µM	MIC Enterobacter aerogenes (Enterobacter aerogenes): 1 µM; MIC Staphylococcus aureus (Staphylococcus aureus): 1 µM
COC(=O)[C@]1(Cc2ccc(O)c(CC=C(C)C)c2)OC(=O)C(O)=C1c1ccc(O)cc1 [Compound 5, butyrolactone I]						IC50 ([1]; MDCK, 48 h): 143 µM; CC50 at 72 h [2]: 976 µM; IC50 at 72 h (HL-60 cell line): 57.5 µM
CC(=O)N1CCN(c2ccc(OCC3COC(Cn4ccnc4)(c4ccc(Cl)cc4Cl)O3)cc2)CC1 (stereo not shown) [Ketoconazole, reference compound]			5 µM (≈ 2.66 µg/mL)			
COC(=O)[C@]1(Cc2ccc(O)c(CCC(C)(C)O)c2)OC(=O)C(O)=C1c1ccc(O)cc1 [Compound 3, (R)-methyl 4-hydroxy-2-(4-hydroxy-3-(3-hydroxy-3-methylbutyl)benzyl)-3-(4-hydroxyphenyl)-5-oxo-2,5-dihydrofuran-2-carboxylate]	> 100 µM		> 100 µM	> 100 µM		MIC (Pseudomonas aeruginosa; read-out: MIC Pseudomonas aeruginosa): > 100 µM
COC(=O)c1cc(OC)c(OC)c(OC)c1NC(=O)c1ccccc1NC(=O)c1cccnc1 [Compound 4, methyl 3,4,5-trimethoxy-2-(2-(nicotinamido)benzamido)benzoate]	> 100 µM	> 100 µM	> 100 µM	52.4 µM (≈ 24.4 µg/mL)		
COC(=O)c1cccc(O)c1NC(=O)c1ccccc1NC(=O)c1cccnc1 [Compound 1, methyl 3-hydroxy-2-(2-(nicotinamido)benzamido)benzoate]	> 100 µM	63.9 µM (≈ 25 µg/mL)	> 100 µM	63.9 µM (≈ 25 µg/mL)	>100 µM	
C/C=C/C1=CC(=O)[C@@H](O)[C@@H]1O [Compound 15, (+)-terrein]					>100 µM	MIC Enterobacter aerogenes (Enterobacter aerogenes): >100 µM; MIC Candida albicans (Candida albicans; agar dilution, YPD agar, paper disks, 24 h incubation, 37 °C): >100 µM; MIC Staphylococcus aureus (Staphylococcus aureus): >100 µM
